Results on 2 compounds are retold here after patent publication US20060257535A1, “Milk mineral compositions for use with raw meat products” (Glanbia Nutritionals (Ireland) Limited, priority 2005, published 2006).

Series [1] is described as follows: Thiobarbituric acid reactive substances (TBARS/TBA) assay of oxidative rancidity. The note with it: for TBA value: mean for entire 14 day study period, 80% oxygen MAP, 2° C. From the text:
(§1) Thiobarbituric acid assay (TBA) values and color of ground beef in 80% oxygen modified atmosphere packaging were examined. The additive compositions used for each treatment are identified in Table 3.
(§2) Co., of Troy Ohio) with a 0.60 cm plate and finely ground using a 0.32 cm plate. The MM, vitamin E and STP were manually mixed with the meat. Meat portions of about 130 grams each were placed in vacuum pouches. […] The meat samples were packaged in PVC-wrapped containers in 80% oxygen MAP (gas cylinder containing 80% oxygen and 20% carbon dioxide available from Praxair Distribution of Salt Lake City, Utah) to simulate retail packaging conditions and held for 14 days at 2° C., which is essentially the same as conventional retail packaging for ground beef. Thiobarbituric acid assay (TBA) and color readings were taken after 1, 4, 7 and 14 days.
[…]. Oxidation of fat-containing foods leads to the formation of malondialdehyde or derivates of this compound. […]. Duplicate samples (0.5 g) were mixed with 2.5 ml of solution containing 0.375% TBA (Sigma Chem. Co. of St. Louis, Mo.), 15% trichloroacetic acid (TCA) (Mallinckrodt Baker, Inc. of Paris, Ky.) and 0.25 N hydrochloric acid (HCl). The samples were heated for 10 minutes in a boiling water bath (100° C.) to develop a pink color, cooled in tap water and centrifuged (Sorvall Instruments, Model RC 5C, DuPont, Wilmington, Del.) at 6000 rpm for 10 minutes. The absorbance of the supernatant was measured spectrophotometrically (Spectronic 21D, Milton Roy, Rochester, N.Y.) at 532 nm against a blank that contained all of the reagents minus the meat. The malonaldehyde (MDA) concentration was calculated using an extinction coefficient of 1.56×10^5 M-cm^−1. The MDA concentration was converted to TBA number (mg MDA/kg sample) according to Equation (I): [formula] or to TBA number (parts per million) according to Equation (II): TBA number (ppm)=Sample A532×2.77 (II)
Samples were taken from the exterior surface and the interior portions of the meat and analyzed for rancidity using TBA analysis.

Series [2] is described as follows: Hunter color redness (a*) measurement.
Text: as §1, §2
The Hunter measurement standard uses the following scales: L=lightness, a=green and red and b=blue and yellow. The L*, a* and b* values were measured using a Hunter Lab Miniscan portable colorimeter (Reston, Va.), standardized using a white and black standard tile. The hue angle was calculated using the formula: hue angle=tan^−1(b*/a*).
Larger hue angles are associated with less red color, where hue angle=0 is red and hue angle=90 is yellow. The raw samples were scored for color, where 1=purple, 2=reddish purple, 3=bright red, 4=tan and 5=brown.

On to `O=P(O)(O)OP(=O)(O)OP(=O)(O)O` [STP, sodium tripolyphosphate], for which the TBA values entry was “low TBA values” in series [1] (0.25% STP and 0.5% STP, 7 and 14 days following packaging, FIG. 1b); “less than 1” in series [1] (higher level of STP (0.5%), after 14 days of storage). The “TBA values compared with control” value in series [1] (0.25% and 0.5% STP, 14 days following packaging) is “significantly lower”. In series [1] (0.5% STP, 14 days), the “TBA values compared with 0.25% STP treatment group” value is on record as “significantly lower”. Also, the TBA value in series [1] (STP 0.25% by weight of meat) amounted to 0.65 b; in series [1] (STP 0.5% by weight of meat), 0.33 c. The “TBA values (effectiveness compared with 0.5% STP)” value in series [1] (lower level of STP (0.25%), after 14 days of storage) was “not as effective”. Also, in series [1] (p<0.05), the “TBA values compared with treatments with vitamin E” value is reported as “lower”. Besides, the “red color compared with 0.25% STP and controls” value in series [2] (0.5% STP, after 14 days, FIG. 2b) is listed as “significantly more red color”. Also, the “color stability of raw ground beef” value in series [2] (MM more than STP) is reported as “dramatically increased”.

Take vitamin E [Vit E]: the TBA value in series [1] (Vit E 50 ppm in ethanol) is on record as 1.67 a; in series [1] (Vit E 50 ppm in mineral oil) it was 1.71 a; in series [1] (Vit E 100 ppm in ethanol), 1.61 a; in series [1] (Vit E 100 ppm in mineral oil) it was 1.74 a. Moreover, in series [1] (both vitamin E preparations (mineral oil, ethanol)), the “TBA values compared with control” value is given as “not significantly different from the control”. For the same compound, the “antioxidant effects (TBA values)” value in series [1] (vitamin E in mineral oil or in ethanol, FIG. 1c, 1d) is on record as “no antioxidant effects”. Further, the “a* values” in series [2] (highest level of vitamin E in ethanol, by 14 days) was “lowest a* values”. Moreover, in series [2] (vitamin E in mineral oil, after 7 days), the “red color compared with controls” value was “significantly less red in color than the controls”. The “red color compared with control” value in series [2] (vitamin E in oil or in ethanol, FIG. 2c, 2d) is listed as “did not exhibit any more red color than control samples”.
